Key:
Experiment in all cases: relative viability (nuclei count vs DMSO), 5 days (fraction); higher = more cells survive
201T = tested on: 201T
In short: (§1)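 Medians of duplicate plates are given as relative viability. That measure is the nuclei count in treated wells divided by the count in vehicle wells. Counts were taken on 4× images of lung cancer cell lines in 1536-well plates, 5 days after pin-tool dosing the day after seeding with one drug alone or a fixed anchor-drug dose plus five library-drug doses (not always all listed) in √10 steps.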

COR-L23 = tested on: COR-L23
In short: as §1

EPLC-272H = tested on: EPLC-272H
In short: as §1

H3255 = tested on: H3255
In short: as §1

HCC-44 = tested on: HCC-44
In short: as §1

LOU-NH91 = tested on: LOU-NH91
In short: as §1

NCI-H1563 = tested on: NCI-H1563
In short: as §1

NCI-H1650 = tested on: NCI-H1650
In short: as §1

NCI-H1734 = tested on: NCI-H1734
In short: as §1

NCI-H1793 = tested on: NCI-H1793
In short: as §1

NCI-H1993 = tested on: NCI-H1993
In short: as §1

NCI-H2023 = tested on: NCI-H2023
In short: as §1

NCI-H2085 = tested on: NCI-H2085
In short: as §1

NCI-H2170 = tested on: NCI-H2170
In short: as §1

NCI-H2347 = tested on: NCI-H2347
In short: as §1

NCI-H2405 = tested on: NCI-H2405
In short: as §1

NCI-H3122 = tested on: NCI-H3122
In short: as §1

NCI-H441 = tested on: NCI-H441
In short: as §1

NCI-H520 = tested on: NCI-H520
In short: as §1

NCI-H647 = tested on: NCI-H647
In short: as §1

PC-14 = tested on: PC-14
In short: as §1

RERF-LC-KJ = tested on: RERF-LC-KJ
In short: as §1

SW 900 = tested on: SW 900
In short: as §1

## C=C1C(=O)O[C@@H](CCCCCCCC)[C@@H]1C(=O)O [C-75] + CCNC(=O)c1noc(-c2cc(C(C)C)c(O)cc2O)c1-c1ccc(CN2CCOCC2)cc1 [Luminespib] (partner 0.01 µM)
201T; first compound 0.08 µM
  relative viability: 1.07
201T; first compound 0.253 µM
  relative viability: 1.08
201T; first compound 0.8 µM
  relative viability: 1.07
201T; first compound 2.53 µM
  relative viability: 1.04
201T; first compound 8 µM
  relative viability: 1.06
COR-L23; first compound 0.08 µM
  relative viability: 0.63
COR-L23; first compound 0.253 µM
  relative viability: 0.706
COR-L23; first compound 0.8 µM
  relative viability: 0.682
COR-L23; first compound 2.53 µM
  relative viability: 0.66
COR-L23; first compound 8 µM
  relative viability: 0.559
EPLC-272H; first compound 0.08 µM
  relative viability: 0.302
EPLC-272H; first compound 0.253 µM
  relative viability: 0.308
EPLC-272H; first compound 0.8 µM
  relative viability: 0.297
EPLC-272H; first compound 2.53 µM
  relative viability: 0.202
EPLC-272H; first compound 8 µM
  relative viability: 0.159
H3255; first compound 0.08 µM
  relative viability: 0.935
H3255; first compound 0.253 µM
  relative viability: 1.02
H3255; first compound 0.8 µM
  relative viability: 0.794
H3255; first compound 2.53 µM
  relative viability: 0.723
H3255; first compound 8 µM
  relative viability: 0.977
HCC-44; first compound 0.08 µM
  relative viability: 0.966
HCC-44; first compound 0.253 µM
  relative viability: 0.984
HCC-44; first compound 0.8 µM
  relative viability: 1
HCC-44; first compound 2.53 µM
  relative viability: 0.89
HCC-44; first compound 8 µM
  relative viability: 0.729
LOU-NH91; first compound 0.08 µM
  relative viability: 0.307
LOU-NH91; first compound 0.253 µM
  relative viability: 0.346
LOU-NH91; first compound 0.8 µM
  relative viability: 0.344
LOU-NH91; first compound 2.53 µM
  relative viability: 0.29
LOU-NH91; first compound 8 µM
  relative viability: 0.32
NCI-H1563; first compound 0.08 µM
  relative viability: 0.498
NCI-H1563; first compound 0.253 µM
  relative viability: 0.535
NCI-H1563; first compound 0.8 µM
  relative viability: 0.531
NCI-H1563; first compound 2.53 µM
  relative viability: 0.483
NCI-H1563; first compound 8 µM
  relative viability: 0.557
NCI-H1650; first compound 0.08 µM
  relative viability: 0.215
NCI-H1650; first compound 0.253 µM
  relative viability: 0.194
NCI-H1650; first compound 2.53 µM
  relative viability: 0.141
NCI-H1650; first compound 8 µM
  relative viability: 0.211
NCI-H1734; first compound 0.08 µM
  relative viability: 0.201
NCI-H1734; first compound 0.253 µM
  relative viability: 0.192
NCI-H1734; first compound 0.8 µM
  relative viability: 0.178
NCI-H1734; first compound 2.53 µM
  relative viability: 0.184
NCI-H1734; first compound 8 µM
  relative viability: 0.185
NCI-H1793; first compound 0.08 µM
  relative viability: 0.18
NCI-H1793; first compound 0.253 µM
  relative viability: 0.148
NCI-H1793; first compound 0.8 µM
  relative viability: 0.141
NCI-H1793; first compound 2.53 µM
  relative viability: 0.264
NCI-H1793; first compound 8 µM
  relative viability: 0.224
NCI-H1993; first compound 0.08 µM
  relative viability: 0.988
NCI-H1993; first compound 0.253 µM
  relative viability: 0.806
NCI-H1993; first compound 0.8 µM
  relative viability: 0.787
NCI-H1993; first compound 2.53 µM
  relative viability: 0.875
NCI-H1993; first compound 8 µM
  relative viability: 0.83
NCI-H2023; first compound 0.08 µM
  relative viability: 0.746
NCI-H2023; first compound 0.253 µM
  relative viability: 0.921
NCI-H2023; first compound 0.8 µM
  relative viability: 0.706
NCI-H2023; first compound 8 µM
  relative viability: 0.696
NCI-H2085; first compound 0.08 µM
  relative viability: 0.427
NCI-H2085; first compound 0.253 µM
  relative viability: 0.416
NCI-H2085; first compound 0.8 µM
  relative viability: 0.38
NCI-H2085; first compound 2.53 µM
  relative viability: 0.366
NCI-H2085; first compound 8 µM
  relative viability: 0.417
NCI-H2170; first compound 0.08 µM
  relative viability: 0.551
NCI-H2170; first compound 0.253 µM
  relative viability: 0.599
NCI-H2170; first compound 0.8 µM
  relative viability: 0.785
NCI-H2170; first compound 2.53 µM
  relative viability: 0.407
NCI-H2170; first compound 8 µM
  relative viability: 0.669
NCI-H2347; first compound 0.08 µM
  relative viability: 0.409
NCI-H2347; first compound 0.253 µM
  relative viability: 0.474
NCI-H2347; first compound 0.8 µM
  relative viability: 0.294
NCI-H2347; first compound 8 µM
  relative viability: 0.446
NCI-H2405; first compound 0.08 µM
  relative viability: 0.822
NCI-H2405; first compound 0.253 µM
  relative viability: 0.478
NCI-H2405; first compound 0.8 µM
  relative viability: 0.716
NCI-H2405; first compound 2.53 µM
  relative viability: 0.558
NCI-H2405; first compound 8 µM
  relative viability: 0.869
NCI-H3122; first compound 0.08 µM
  relative viability: 0.0952
NCI-H3122; first compound 0.253 µM
  relative viability: 0.128
NCI-H3122; first compound 0.8 µM
  relative viability: 0.0733
NCI-H3122; first compound 2.53 µM
  relative viability: 0.0938
NCI-H3122; first compound 8 µM
  relative viability: 0.131
NCI-H441; first compound 0.08 µM
  relative viability: 0.329
NCI-H441; first compound 0.253 µM
  relative viability: 0.453
NCI-H441; first compound 0.8 µM
  relative viability: 0.295
NCI-H441; first compound 2.53 µM
  relative viability: 0.518
NCI-H441; first compound 8 µM
  relative viability: 0.305
NCI-H520; first compound 0.08 µM
  relative viability: 0.233
NCI-H520; first compound 0.253 µM
  relative viability: 0.214
NCI-H520; first compound 0.8 µM
  relative viability: 0.217
NCI-H520; first compound 2.53 µM
  relative viability: 0.208
NCI-H520; first compound 8 µM
  relative viability: 0.331
NCI-H647; first compound 0.08 µM
  relative viability: 0.114
NCI-H647; first compound 0.253 µM
  relative viability: 0.256
NCI-H647; first compound 0.8 µM
  relative viability: 0.183
NCI-H647; first compound 2.53 µM
  relative viability: 0.117
NCI-H647; first compound 8 µM
  relative viability: 0.13
PC-14; first compound 0.08 µM
  relative viability: 0.158
PC-14; first compound 0.253 µM
  relative viability: 0.171
PC-14; first compound 0.8 µM
  relative viability: 0.151
PC-14; first compound 2.53 µM
  relative viability: 0.142
PC-14; first compound 8 µM
  relative viability: 0.152
RERF-LC-KJ; first compound 0.08 µM
  relative viability: 1.31
RERF-LC-KJ; first compound 0.253 µM
  relative viability: 1.22
RERF-LC-KJ; first compound 0.8 µM
  relative viability: 1.23
RERF-LC-KJ; first compound 2.53 µM
  relative viability: 1.08
RERF-LC-KJ; first compound 8 µM
  relative viability: 1.11
SW 900; first compound 0.08 µM
  relative viability: 0.169
SW 900; first compound 0.253 µM
  relative viability: 0.191
SW 900; first compound 0.8 µM
  relative viability: 0.163
SW 900; first compound 2.53 µM
  relative viability: 0.175
SW 900; first compound 8 µM
  relative viability: 0.206
